In patent publication US9695159B2, “Process for preparation of canagliflozin” (Glenmark Pharmaceuticals Limited, priority 2014, dated 2017):

Assay: Hygroscopic study: water content by KF and description after exposure to 25° C./60% RH and 25° C./90% RH
Type: physicochemical
Procedure: Method for Measuring the Water Content
About 10 g canagliflozin was exposed to 25° C. and 60% relative humidity and 25° C. and 90% relative humidity conditions. About 300 mg of sample was withdrawn each time at the timely intervals of 1 hr, 2 hrs, 4 hrs, 8 hrs, 12 hrs, 24 hrs and 48 hrs from the conditions and tested for description and water content by KF. The water content was calculated by the following formula: […]
Results of Hygroscopic Study for Canagliflozin Obtained as Per Example 16

In the case of `Cc1ccc([C@@H]2O[C@H](CO)[C@@H](O)[C@H](O)[C@H]2O)cc1Cc1ccc(-c2ccc(F)cc2)s1` [Canagliflozin, 1(S)-1,5-anhydro-1-[3[[5-(4-fluorophenyl)-2-thienyl]methyl]-4-methylphenyl]-D-glucitol], the Description (25° C./60% RH, 1 hr) is reported as “Off white”, the “Moisture content by KF (%)” value (25° C./60% RH, 1 hr) is reported as 2.22% and the Description (25° C./60% RH, 2 hrs) is reported as “Off white”. The “Moisture content by KF (%)” value (25° C./60% RH, 2 hrs) was 2.29%, the Description (25° C./60% RH, 4 hrs) was “Off white” and the “Moisture content by KF (%)” value (25° C./60% RH, 4 hrs) was 2.33%. The Description (25° C./60% RH, 8 hrs) was “Off white”, the “Moisture content by KF (%)” value (25° C./60% RH, 8 hrs) was 2.35% and the Description (25° C./60% RH, 12 hrs) was “Off white”. The “Moisture content by KF (%)” value (25° C./60% RH, 12 hrs) was 2.39%, the Description (25° C./60% RH, 24 hrs) was “Off white” and the “Moisture content by KF (%)” value (25° C./60% RH, 24 hrs) was 2.42%. The Description (25° C./60% RH, 48 hrs) was “Off white”, the “Moisture content by KF (%)” value (25° C./60% RH, 48 hrs) was 2.49% and the Description (25° C./60% RH, Initial) was “Off white”. For the same compound, the “Moisture content by KF (%)” value (25° C./60% RH, Initial) was 2.19%, the Description (25° C./90% RH, 1 hr) was “Off white” and the “Moisture content by KF (%)” value (25° C./90% RH, 1 hr) was 2.36%. The Description (25° C./90% RH, 2 hrs) was “Off white”, the “Moisture content by KF (%)” value (25° C./90% RH, 2 hrs) was 2.48% and the Description (25° C./90% RH, 4 hrs) was “Off white”. The “Moisture content by KF (%)” value (25° C./90% RH, 4 hrs) was 2.52%, the Description (25° C./90% RH, 8 hrs) was “Off white” and the “Moisture content by KF (%)” value (25° C./90% RH, 8 hrs) was 2.69%. For the same compound, the Description (25° C./90% RH, 12 hrs) was “Off white”, the “Moisture content by KF (%)” value (25° C./90% RH, 12 hrs) was 2.87% and the Description (25° C./90% RH, 24 hrs) was “Off white”. For the same compound, the “Moisture content by KF (%)” value (25° C./90% RH, 24 hrs) was 3.17%, the Description (25° C./90% RH, 48 hrs) was “Off white” and the “Moisture content by KF (%)” value (25° C./90% RH, 48 hrs) was 3.48%. For the same compound, the Description (25° C./90% RH, Initial) was “Off white” and the “Moisture content by KF (%)” value (25° C./90% RH, Initial) was 2.19%.
For `Cc1ccc([C@@H]2O[C@H](CO)[C@@H](O)[C@H](O)[C@H]2O)cc1Cc1ccc(-c2ccc(F)cc2)s1` [amorphous canagliflozin, 1(S)-1,5-anhydro-1-[3[[5-(4-fluorophenyl)-2-thienyl]methyl]-4-methylphenyl]-D-glucitol], the “increase of moisture content” value (exposed for 48 hours to 25° C. and 60% relative humidity) was ≤ 0.4% and the “increase of moisture content” value (exposed for 48 hours to 25° C. and 90% relative humidity) was ≤ 0.4%.
